According to article PMC11945486, “TAS1R2/TAS1R3 Single-Nucleotide Polymorphisms Affect Sweet Taste Receptor Activation by Sweeteners: The SWEET Project” (Nutrients, 2025):
Like-named read-outs stand apart in the source and are kept apart here. No end group written: not given here.

T1: human TAS1R2-WT/TAS1R3-L823F (Homo sapiens, UniProt Q7RTX0+Q8TE23, L823F)
T1 construct: expressed in transfected cells; host or cells: HEK293T stably expressing Gα16gust44
T1 sequence (Q8TE23 20-839): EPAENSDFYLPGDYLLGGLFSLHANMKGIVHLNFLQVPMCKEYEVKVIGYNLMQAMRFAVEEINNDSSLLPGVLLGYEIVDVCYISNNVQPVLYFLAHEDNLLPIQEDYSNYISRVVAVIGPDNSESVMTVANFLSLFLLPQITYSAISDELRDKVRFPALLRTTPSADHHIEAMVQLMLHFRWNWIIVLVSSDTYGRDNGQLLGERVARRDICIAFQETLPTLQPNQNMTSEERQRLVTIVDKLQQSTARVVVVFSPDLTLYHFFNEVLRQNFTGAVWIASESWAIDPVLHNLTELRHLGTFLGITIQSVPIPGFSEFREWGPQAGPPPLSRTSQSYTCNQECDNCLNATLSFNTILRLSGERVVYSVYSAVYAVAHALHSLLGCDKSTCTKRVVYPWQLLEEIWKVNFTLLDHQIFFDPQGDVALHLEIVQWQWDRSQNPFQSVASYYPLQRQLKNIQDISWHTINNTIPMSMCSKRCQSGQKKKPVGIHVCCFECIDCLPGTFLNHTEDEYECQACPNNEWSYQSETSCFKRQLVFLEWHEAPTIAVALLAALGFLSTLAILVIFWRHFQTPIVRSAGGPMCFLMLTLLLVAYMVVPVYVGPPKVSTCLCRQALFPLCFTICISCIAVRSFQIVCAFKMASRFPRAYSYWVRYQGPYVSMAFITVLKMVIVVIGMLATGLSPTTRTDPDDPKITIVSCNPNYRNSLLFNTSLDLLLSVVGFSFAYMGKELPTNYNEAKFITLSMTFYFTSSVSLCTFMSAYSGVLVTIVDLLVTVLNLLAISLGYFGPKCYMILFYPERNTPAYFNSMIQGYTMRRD
T1 sequence (Q7RTX0 21-852 L823F): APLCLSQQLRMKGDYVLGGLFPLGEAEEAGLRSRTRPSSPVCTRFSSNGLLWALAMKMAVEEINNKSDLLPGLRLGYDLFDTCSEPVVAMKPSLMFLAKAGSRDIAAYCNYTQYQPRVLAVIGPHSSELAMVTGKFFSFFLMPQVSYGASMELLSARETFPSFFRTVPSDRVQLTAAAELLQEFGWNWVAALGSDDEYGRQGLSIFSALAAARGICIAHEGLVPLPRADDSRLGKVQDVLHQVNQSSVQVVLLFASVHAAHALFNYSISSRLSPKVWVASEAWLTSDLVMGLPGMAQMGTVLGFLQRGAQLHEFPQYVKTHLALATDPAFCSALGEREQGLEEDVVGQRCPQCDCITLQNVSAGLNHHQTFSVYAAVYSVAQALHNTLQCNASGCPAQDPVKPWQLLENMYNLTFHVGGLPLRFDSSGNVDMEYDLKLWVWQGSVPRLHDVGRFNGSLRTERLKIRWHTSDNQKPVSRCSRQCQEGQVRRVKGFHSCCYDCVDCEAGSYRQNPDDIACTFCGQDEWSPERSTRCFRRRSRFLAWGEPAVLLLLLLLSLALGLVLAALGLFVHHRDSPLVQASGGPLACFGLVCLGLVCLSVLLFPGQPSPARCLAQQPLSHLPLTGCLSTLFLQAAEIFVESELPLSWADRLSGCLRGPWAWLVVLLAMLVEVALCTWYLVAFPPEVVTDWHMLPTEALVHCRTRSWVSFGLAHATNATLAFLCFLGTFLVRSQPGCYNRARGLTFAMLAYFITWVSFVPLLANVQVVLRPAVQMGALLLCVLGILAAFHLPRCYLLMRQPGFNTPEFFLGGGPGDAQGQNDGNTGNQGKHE

B1: thaumatin (protein)
chain: ATFEIVNRCSYTVWAAASKGDAALDAGGRQLNSGESWTINVEPGTKGGKIWARTDCYFDDSGSGICKTGDCGGLLRCKRFGRPPTTLAEFSLNQYGKDYIDISNIKGFNVPMDFSPTTRGCRGVRCAADIVGQCPAKLKAPGGGCNDACTVFQTSEYCCTTGKCGPTEYSRFFKRLCPDAFSYVLDKPTTVTCPGSSNYRVTFCPTA
modifications: Eight disulfides
notes: sweet-tasting plant protein, E957

Target: T1, human TAS1R2-WT/TAS1R3-L823F
Test: Calcium mobilisation assay, TAS1R2-WT with TAS1R3 variant L823F
Assay type: cell-based
Settings: for Max ΔF/F0: maximal signal amplitude
Excerpt: The coding sequences for TAS1R2 and TAS1R3 were commercially synthesised, and the human codon was optimised for expression in human cells. The coding sequences of human TAS1R2 and TAS1R3 were subcloned and inserted into the mammalian expression vectors pcDNA6/myc-HisA and pcDNA4/myc-HisA (Invitrogen; Thermo Fisher Scientific; Illkirch, France) between the EcoRI and NotI restriction sites, generating the plasmids pcDNA6-TAS1R2 and pcDNA4-TAS1R3, respectively. To increase protein expression in mammalian cells, an upstream start codon was used, which was a sequence called MAX, corresponding to the QBI SP163 element also described in pcDNA4-HisMax (Invitrogen; Thermo Fisher Scientific; Illkirch, France). To measure the expression level of the receptor by immunohistochemistry, we used the FLAG sequence ([…]) in the C-terminal position, which encodes the FLAG tag epitope. SNP variants of TAS1R2 and TAS1R3 were constructed based on […], respectively, using site-directed mutagenesis (Genewiz; Leipzig, Germany).
The HEK293T cells were kindly provided by Jay P. Slack (Givaudan Flavors Corporation; Cincinnati, OH, USA). HEK293T cells stably transfected with Gα16gust44 [43, 67] were seeded in poly-D-lysine-coated clear-bottom black 96-well plates (0.35 × 10^5 cells/well) in high-glucose DMEM supplemented with 2 mM GlutaMAX, 10% dialysed foetal bovine serum with penicillin/streptomycin and G418 (400 μg/mL) at 37 °C and 6.3% CO2 in a humidified atmosphere as previously reported. […] As a negative control, HEK293T cells were mock-transfected with the empty expression vector. After a further 24 h of incubation, the HEK293T cells were washed with C1 buffer (130 mM NaCl, 5 mM KCl, 10 mM HEPES pH 7.4 and 2 mM CaCl2). The 96-well plates containing the cells were then stimulated with sweet-tasting compounds. […] Different concentration ranges were tested depending on the sweet compound injected. The Ca^2+ changes were expressed as fractional changes in fluorescent light intensity: ΔF/F = (F − F0)/F0, where F was the fluorescent light intensity at each point, and F0 was the value of emitted fluorescent light prior to stimulus application. To calculate dose–response relationships, the changes in fluorescence upon stimulus application were averaged, mock-subtracted and baseline-corrected. The dose–response data obtained were adjusted using a 4-parameter logistic equation. The half-maximal effective concentrations (EC50 values) and maximal signal amplitudes were calculated using SigmaPlot software (version 15.0) (Systat Software; San Jose, CA, USA).
For in vitro calcium mobilisation assay performed on hTAS1R2-SNPs, hTAS1R3-SNPs and mTAS1R3-I60T, 6 to 7 concentrations were tested for each sweet compound, plus buffer alone. All concentration–receptor combinations were measured in duplicate, and each experiment was repeated at least 4 times (8 wells/concentration). Results were expressed for each concentration as ΔF/F mean ± SEM and represented as dose–response curves.

Row | Molecule | R1 = Variant EC50/WT EC50 | Max ΔF/F0 | EC50 (read-out: EC50) [µM] | EC50 (brazzein) [µg/mL]
1 | OC[C@H]1O[C@H](O[C@]2(CCl)O[C@H](CCl)[C@@H](O)[C@@H]2O)[C@H](O)[C@@H](O)[C@H]1Cl [Sucralose] | 1.2 | 0.84 ± 0.02 | 134 ± 8 | –
2 | O=S(=O)(O)NC1CCCCC1 [Cyclamate, cyclamate] | – | – | 1370 ± 34 | –
3 | C=C(C)[C@@H]1CC=C(/C=N/O)CC1 [Perillartine, perillartine] | 0.7 | 1.39 ± 0.15 | 10 ± 3.1 | –
4 | C=C1C[C@@]23CC[C@H]4[C@@](C)(CCC[C@@]4(C)C(=O)O[C@@H]4O[C@H](CO)[C@@H](O)[C@H](O[C@@H]5O[C@H](CO)[C@@H](O)[C@H](O)[C@H]5O)[C@H]4O[C@@H]4O[C@H](CO)[C@@H](O)[C@H](O)[C@H]4O)[C@@H]2CC[C@]1(O[C@@H]1O[C@H](CO)[C@@H](O)[C@H](O[C@@H]2O[C@H](CO)[C@@H](O)[C@H](O)[C@H]2O)[C@H]1O[C@@H]1O[C@H](CO)[C@@H](O)[C@H](O)[C@H]1O)C3 [Rebaudioside M, rebaudioside M] | 0.8 | 1.35 ± 0.09 | 33.2 ± 5.4 | –
5 | COc1ccc(CCC(=O)c2c(O)cc(O[C@@H]3O[C@H](CO)[C@@H](O)[C@H](O)[C@H]3O[C@@H]3O[C@@H](C)[C@H](O)[C@@H](O)[C@H]3O)cc2O)cc1O [NHDC, neohesperidin dihydrochalcone] | 0.9 | 1.00 ± 0.01 | 43.1 ± 14.7 | –
6 | thaumatin | 0.7 | 0.71 ± 0.04 | – | –
7 | CC1=CC(=O)NS(=O)(=O)O1 [Acesulfame K, acesulfame K] | 0.6 | 0.33 ± 0.01 | 376 ± 34 | –
8 | brazzein (QDKCKKVYENYPVSKCQLANQCNYDCKLDKHARSGECFYDEKRNLQCICDYCEY; ends and bridges not checked; cysteine pairing not given here; UniProt P56552 1-54, looked up) [sweet-tasting protein obtained by recombinant production using the yeast Pichia pastoris] | 0.7 | 0.98 ± 0.05 | – | 78.9 ± 14.2
9 | C[C@H](CC[C@@H](O[C@@H]1O[C@H](CO[C@@H]2O[C@H](CO)[C@@H](O)[C@H](O)[C@H]2O)[C@@H](O)[C@H](O)[C@H]1O[C@@H]1O[C@H](CO)[C@@H](O)[C@H](O)[C@H]1O)C(C)(C)O)[C@H]1CC[C@@]2(C)[C@@H]3CC=C4[C@@H](CC[C@H](O[C@@H]5O[C@H](CO[C@@H]6O[C@H](CO)[C@@H](O)[C@H](O)[C@H]6O)[C@@H](O)[C@H](O)[C@H]5O)C4(C)C)[C@]3(C)[C@H](O)C[C@]12C [Mogroside V, mogroside V] | 0.7 | 1.18 ± 0.04 | 22 ± 1.8 | –
10 | COC(=O)[C@H](Cc1ccccc1)NC(=O)[C@H](CC(=O)O)NCCC(C)(C)C [Neotame] | 0.9 | 0.76 ± 0.01 | 1.1 ± 0.06 | –
11 | B1 | – | – | 7.4 ± 1.1 | –
